From publication PMC11479992, “Branched oncolytic peptides target HSPGs, inhibit metastasis, and trigger the release of molecular determinants of immunogenic cell death in pancreatic cancer” (Frontiers in Molecular Biosciences, 2024)
Counter-ions that a name gives are not always drawn. Bridges are numbered along the chain shown (N, C = ends). Roman numbers before positions name the chains, in order. Where no end group is shown, it is not given here.

How the values were obtained:
[1] = tested on: ATP release by PANC-1 cells; assay: Extracellular ATP bioluminescence assay; type: cell-based, human; conditions: 50 μM
Description: PANC-1 cells were seeded (10 × 10^3 cells/well) in an opaque-walled 96-well plate and incubated overnight at 37°C in a 5% CO2 atmosphere. The following day, each well was treated with 150 μL BOP7, BOP9, daunorubicin hydrochloride (Sigma Aldrich) or irinotecan hydrochloride (cod. PHR2717, Sigma Aldrich) at different concentrations (from 50 to 2 μM). At the same time, each well was incubated with 50 μL RealTime-Glo Extracellular ATP Reagent Substrate (Promega). The plate was incubated at 37° and bioluminescence was measured at 560 nm at different time intervals with a VICTOR NIVO 5S luminometer (Perkin Elmer, Waltham, MA, United States). Data was analysed using GraphPad Prism version 9.5.0 software.

[2] = tested on: HMGB1 release by PANC-1 cells; assay: HMGB1 release ELISA; type: cell-based, human; conditions: 300 to 2 μM, 24 h, ELISA of supernatants, n = 3
Description: PANC-1 cells were seeded 5 × 10^4 cells/well in a standard 96-well plate and incubated overnight at 37°C in a 5% CO2 atmosphere. Then they were treated with BOP7, BOP9, daunorubicin hydrochloride (Sigma Aldrich) and irinotecan hydrochloride (Sigma Aldrich) at different concentrations (from 300 to 2 μM in 200 μL) and left for 24 h at 37°C. The following day, release of HMGB1 in the culture medium was assessed with an HMGB1 ELISA kit (IBL International, Hamburg, Germany) in the PANC-1 supernatants, according to the manufacturer’s instructions. Optical density was measured at 450 nm with a microplate spectrophotometer (Multiskan, Thermo Scientific). Data was analysed using GraphPad Prism version 9.5.0 software.

[3] = tested on: IFN-β secretion by PANC-1 cells; assay: IFN-β release ELISA; type: cell-based, human; conditions: 300 to 2 μM, 24 h, n = 3
Description: PANC-1 cells were seeded 5 × 10^4 cells/well in a 96-well plate and incubated overnight at 37°C in a 5% CO2 atmosphere. Cells were then treated with BOP7, BOP9, daunorubicin hydrochloride (Sigma Aldrich) and irinotecan hydrochloride (Sigma Aldrich) at different concentrations (from 300 to 2 μM) and left for 24 h at 37°C. At the same time, a DuoSet ELISA plate (R&D Systems Inc., Minneapolis, MN, United States) for the detection of IFN-β was prepared following the manufacturer’s instructions. The plate was sensitized with 100 μL/well of capture antibody for 24 h. PANC-1 supernatants were collected and centrifuged for 5 min at 1,200 rpm, added to the DuoSet plate at 100 μL/well and incubated for 2 h at room temperature. The detection antibody conjugated with streptavidin-peroxidase was then added. After adding the substrate solution, the plate was read at 450 nm using a microplate spectrophotometer (Multiskan, Thermo Scientific). Data was analysed using GraphPad Prism version 9.5.0 software.

PANC-1 cells = type: cell-based, human; conditions: 24 h
Description: (§1) PANC-1, PANC-1-luc2, Mia PaCa-2 or CHO-K1 cells were seeded 5 × 10^4 cells/well in a standard 96-well plate and incubated overnight at 37°C, 5% CO2 atmosphere. Each well was treated with 200 μL BOP7 or BOP9 at different concentrations (from 100 to 0.08 μM) and incubated for 24 h. PANC-1 and Mia PacCa-2 were also tested with linear peptides L7 and L9 at concentrations ranging from 781 to 0.5 μM under the same conditions. Growth inhibition was assessed with a MMT assay (3-(4,5-dimethylthiazol-2-yl)-2,5-diphenyltetrazolium bromide) (Sigma Aldrich). Optical density was measured at 595 and 650 nm with a microplate spectrophotometer (Multiskan, Thermo Scientific). Experiments were repeated twice in quintuplicate. Cell viability was measured by comparing values of treated and untreated cells. IC50 values were calculated by non-linear regression analysis using GraphPad Prism version 9.5.0 software.

Mia PaCa-2 cells = type: cell-based, human; conditions: 24 h
Description: as §1

CHO-K1 cells = type: cell-based, chinese hamster; conditions: 24 h
Description: as §1, with “Each well was treated with 200 μL BOP7 or BOP9 at different concentrations (from 100 to 0.08 μM) and incubated for 24 h.” left out

Molecule | time after which ATP release returned to baseline [1] [h] | time of peak of ATP release [1] [h] | ATP release ([1]; bioluminescence over time) | HMGB1 release [2] | IFN-β release [3] | IC50 (PANC-1 cells) [µM] | IC50 (Mia PaCa-2 cells) [µM] | IC50 (CHO-K1 cells) [µM]
COc1cccc2c1C(=O)c1c(O)c3c(c(O)c1C2=O)C[C@@](O)(C(C)=O)C[C@@H]3O[C@H]1C[C@H](N)[C@H](O)[C@H](C)O1 [daunorubicin, daunorubicin hydrochloride] | 6 | 3 | most effective agent | most effective inducer even at the lowest concentrations | did not result in a statistically significant release |  |  | 
CCc1c2c(nc3ccc(OC(=O)N4CCC(N5CCCCC5)CC4)cc13)-c1cc3c(c(=O)n1C2)COC(=O)[C@]3(O)CC [irinotecan, irinotecan hydrochloride] |  |  |  |  | did not result in a statistically significant release |  |  | 
I: KKKLKFKKLQKK-NH2 / II: KKKLKFKKLQK / III: KKKLKFKKLQ / IV: KKKLKFKKLQ (amide I:11-IV:C, I:12-II:C, II:11-III:C) [BOP9] |  |  |  |  |  | 8.3 | 17.8 | 16000
I: LLKKKFKKLQKK-NH2 / II: LLKKKFKKLQK / III: LLKKKFKKLQ / IV: LLKKKFKKLQ (amide I:11-IV:C, I:12-II:C, II:11-III:C) [BOP7] |  |  |  |  |  | 1.67 | 27.3 | 5000
